# Measured values taken from US20080009418A1, “Selective Inhibitors” (Alchemia LTD., priority 2004, published 2008).
# Key:
# [1] = molecular target: T1, Human δ-opioid (DOP) (Homo sapiens, UniProt P41143); assay: Radioligand binding, human δ-opioid (DOP) membranes, FlashPlate, [3H]-Bremazocine; details: compound at 10 μM; for A1: inhibition of radioligand binding: [3H]-Bremazocine
# T1 construct: purchased Perkin Elmer Biosignal
# Method in brief: (§1)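 Cloned human receptor membranes were coated onto FlashPlate wells and incubated with radioligand and compound (added from a 0.5 mM DMSO daughter plate) for 1 hour at room temperature in the dark. Scintillation counting gave percent inhibition, with DMSO defining total and reference ligand defining non-specific binding.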
# [2] = molecular target: T2, Human κ-Opioid (KOP) (Homo sapiens, UniProt P41145); assay: Radioligand binding, human κ-opioid (KOP) membranes, filtration, [3H]-Diprenorphine; details: compound at 10 μM; for A2: inhibition of radioligand binding: [3H]-Diprenorphine
# T2 construct: purchased Perkin Elmer Biosignal
# Method in brief: (§2)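 Percent inhibition of radioligand binding measured on recombinant human membranes: NK1 with [125I]-Substance P, KOP with [3H]-Diprenorphine. Incubation 1 h at room temperature, then harvest onto 0.3% PEI-soaked filters, cold Tris-HCl pH 7.4 washes and scintillation counting; non-specific binding from reference ligand wells.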
# [3] = molecular target: T3, Human Melanocortin (MC3) (Homo sapiens, UniProt P41968); assay: Radioligand binding, human melanocortin MC3 membranes, FlashPlate, [125I]-NDP-αMSH; details: compound at 10 μM; for A3: inhibition of radioligand binding: [125I]-NDP-αMSH
# T3 construct: purchased Perkin Elmer Biosignal
# Method in brief: as §1
# [4] = molecular target: T4, Human Melanocortin (MC4) (Homo sapiens, UniProt P32245); assay: Radioligand binding, human melanocortin MC4 membranes, FlashPlate, [125I]-NDP-αMSH; details: compound at 10 μM; for A4: inhibition of radioligand binding: [125I]-NDP-αMSH
# T4 construct: purchased Perkin Elmer Biosignal
# Method in brief: as §1
# [5] = molecular target: T5, Human melanocortin (MC5) (Homo sapiens, UniProt P33032); assay: Radioligand binding, human melanocortin MC5 membranes, FlashPlate, [125I]-NDP-αMSH; details: compound at 10 μM; for A5: inhibition of radioligand binding: [125I]-NDP-αMSH
# T5 construct: purchased Perkin Elmer Biosignal
# Method in brief: as §1
# [6] = molecular target: T6, Human melanin-concentrating hormone (MCH1) (Homo sapiens, UniProt Q99705); assay: Radioligand binding, human melanin-concentrating hormone MCH1 membranes, FlashPlate, [125I]-S36057; details: compound at 10 μM
# T6 construct: purchased Perkin Elmer Biosignal
# Method in brief: as §1
# [7] = molecular target: T7, Human μ-opioid (MOP) (Homo sapiens, UniProt P35372); assay: Radioligand binding, human μ-opioid (MOP) membranes, FlashPlate, [3H]-Naloxone; details: compound at 10 μM; for A7: inhibition of radioligand binding: [3H]-Naloxone
# T7 construct: purchased Perkin Elmer Biosignal
# Method in brief: as §1
# [8] = molecular target: T8, Human neurokinin (NK1) (Homo sapiens, UniProt P25103); assay: Radioligand binding, human neurokinin NK1 membranes, filtration, [125I]-Substance P; details: compound at 10 μM; for A8: inhibition of radioligand binding: [125I]-Substance P
# T8 construct: purchased Perkin Elmer Biosignal
# Method in brief: as §2
# [9] = molecular target: T9, Human neuropeptide Y (NPY-Y1) (Homo sapiens, UniProt P25929); assay: Radioligand binding, human neuropeptide Y NPY-Y1 membranes, FlashPlate, [125I]-PYY; details: compound at 10 μM; for A9: inhibition of radioligand binding: [125I]-PYY
# T9 construct: purchased Perkin Elmer Biosignal
# T9 sequence (P25929 1-384): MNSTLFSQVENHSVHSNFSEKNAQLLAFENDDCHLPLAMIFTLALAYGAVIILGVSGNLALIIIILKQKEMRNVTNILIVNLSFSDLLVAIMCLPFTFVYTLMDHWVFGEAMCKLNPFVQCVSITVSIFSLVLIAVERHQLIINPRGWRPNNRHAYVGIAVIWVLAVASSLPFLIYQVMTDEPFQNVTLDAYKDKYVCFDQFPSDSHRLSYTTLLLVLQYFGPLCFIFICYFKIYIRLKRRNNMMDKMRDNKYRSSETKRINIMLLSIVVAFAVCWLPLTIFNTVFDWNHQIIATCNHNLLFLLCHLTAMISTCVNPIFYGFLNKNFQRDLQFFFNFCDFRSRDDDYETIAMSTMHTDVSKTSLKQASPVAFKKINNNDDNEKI
# Method in brief: as §1
# [10] = molecular target: T10, Human opioid (ORL1) (Homo sapiens, UniProt P41146); assay: Radioligand binding, human opioid ORL1 membranes, FlashPlate, [125I]-Nociceptin; details: compound at 10 μM; for A10: inhibition of radioligand binding: [125I]-Nociceptin
# T10 construct: purchased Perkin Elmer Biosignal
# Method in brief: as §1
# [11] = molecular target: T11, Mouse urotensin (mUR2) (Mus musculus, UniProt Q8VIH9); assay: Radioligand binding, mouse urotensin mUR2 membranes, FlashPlate, [125I]-Urotensin II; details: compound at 10 μM; for A11: inhibition of radioligand binding: [125I]-Urotensin II
# T11 construct: purchased Perkin Elmer Biosignal
# T11 sequence (Q8VIH9 1-385): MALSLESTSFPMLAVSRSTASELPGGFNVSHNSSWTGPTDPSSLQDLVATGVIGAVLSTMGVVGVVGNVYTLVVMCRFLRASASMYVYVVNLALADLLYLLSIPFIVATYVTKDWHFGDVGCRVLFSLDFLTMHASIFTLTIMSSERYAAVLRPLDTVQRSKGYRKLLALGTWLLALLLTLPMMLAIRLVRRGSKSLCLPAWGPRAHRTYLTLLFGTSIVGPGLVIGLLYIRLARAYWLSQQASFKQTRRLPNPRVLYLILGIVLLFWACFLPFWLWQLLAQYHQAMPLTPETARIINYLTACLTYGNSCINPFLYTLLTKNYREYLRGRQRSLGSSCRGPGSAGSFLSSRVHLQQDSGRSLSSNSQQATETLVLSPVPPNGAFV
# Method in brief: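 Cloned mouse urotensin (mUR2) receptor membranes from Perkin Elmer Biosignal were immobilized in FlashPlate microplates using a proprietary coating. Each well got 19.5 μl buffer, then 0.5 μl of DMSO, reference ligand, or compound. Adding 5 μl of [125I]-Urotensin II, diluted to 5× final concentration in binding buffer, started binding. Plates were sealed with TopSeal-A and incubated 1 hour at room temperature in the dark. Wells were counted for 30 seconds each on a TopCount after a 60-second delay, and percentage inhibition was calculated.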
# T3 sequence (P41968 whole entry): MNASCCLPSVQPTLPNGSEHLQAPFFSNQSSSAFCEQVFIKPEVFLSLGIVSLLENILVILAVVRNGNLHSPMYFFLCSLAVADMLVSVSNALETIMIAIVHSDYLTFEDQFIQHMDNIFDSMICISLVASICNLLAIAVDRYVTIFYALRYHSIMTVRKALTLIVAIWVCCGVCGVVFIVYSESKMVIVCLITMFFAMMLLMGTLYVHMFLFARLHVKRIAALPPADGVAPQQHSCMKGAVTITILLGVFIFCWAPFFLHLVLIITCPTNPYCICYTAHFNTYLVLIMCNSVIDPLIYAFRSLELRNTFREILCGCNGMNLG
# T10 sequence (P41146 whole entry): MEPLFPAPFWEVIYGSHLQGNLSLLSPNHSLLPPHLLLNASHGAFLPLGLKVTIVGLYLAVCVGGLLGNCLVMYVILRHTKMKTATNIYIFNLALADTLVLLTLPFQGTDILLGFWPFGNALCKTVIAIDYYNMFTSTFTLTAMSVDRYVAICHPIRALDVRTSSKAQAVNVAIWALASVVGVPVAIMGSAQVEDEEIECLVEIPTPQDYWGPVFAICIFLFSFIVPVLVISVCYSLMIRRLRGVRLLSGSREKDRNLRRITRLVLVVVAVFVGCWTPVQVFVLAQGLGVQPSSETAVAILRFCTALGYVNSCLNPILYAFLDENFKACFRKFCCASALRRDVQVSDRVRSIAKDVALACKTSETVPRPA
# T7 sequence (P35372 whole entry): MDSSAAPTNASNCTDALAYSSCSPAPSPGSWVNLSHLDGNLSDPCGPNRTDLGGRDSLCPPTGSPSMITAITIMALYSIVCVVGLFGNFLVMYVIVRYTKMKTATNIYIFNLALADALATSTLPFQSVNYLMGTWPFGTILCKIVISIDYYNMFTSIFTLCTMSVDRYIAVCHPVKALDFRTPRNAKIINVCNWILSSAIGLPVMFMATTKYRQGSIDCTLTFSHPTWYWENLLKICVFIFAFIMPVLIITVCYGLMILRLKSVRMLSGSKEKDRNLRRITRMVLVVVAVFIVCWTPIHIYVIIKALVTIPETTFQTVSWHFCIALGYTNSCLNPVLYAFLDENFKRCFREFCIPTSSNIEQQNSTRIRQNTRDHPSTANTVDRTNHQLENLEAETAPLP
# T4 sequence (P32245 whole entry): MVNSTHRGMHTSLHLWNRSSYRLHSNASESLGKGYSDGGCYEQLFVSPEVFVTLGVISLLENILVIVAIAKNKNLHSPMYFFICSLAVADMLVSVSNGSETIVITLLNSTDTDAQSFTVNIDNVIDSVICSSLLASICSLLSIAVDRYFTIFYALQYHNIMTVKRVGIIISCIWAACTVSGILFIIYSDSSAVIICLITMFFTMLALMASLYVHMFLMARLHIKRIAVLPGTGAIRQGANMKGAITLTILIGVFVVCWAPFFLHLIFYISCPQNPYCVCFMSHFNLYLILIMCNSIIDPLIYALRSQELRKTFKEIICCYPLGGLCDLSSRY
# T2 sequence (P41145 whole entry): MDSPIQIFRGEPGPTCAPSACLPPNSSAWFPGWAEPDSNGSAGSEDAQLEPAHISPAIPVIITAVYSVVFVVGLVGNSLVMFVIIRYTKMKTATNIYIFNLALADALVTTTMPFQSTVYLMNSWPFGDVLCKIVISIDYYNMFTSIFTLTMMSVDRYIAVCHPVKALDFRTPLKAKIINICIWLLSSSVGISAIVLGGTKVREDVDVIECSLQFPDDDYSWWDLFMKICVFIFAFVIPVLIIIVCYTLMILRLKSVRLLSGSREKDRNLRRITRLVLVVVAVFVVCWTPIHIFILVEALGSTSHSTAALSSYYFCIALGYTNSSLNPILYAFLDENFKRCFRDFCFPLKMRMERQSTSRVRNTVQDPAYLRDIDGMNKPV
# T1 sequence (P41143 whole entry): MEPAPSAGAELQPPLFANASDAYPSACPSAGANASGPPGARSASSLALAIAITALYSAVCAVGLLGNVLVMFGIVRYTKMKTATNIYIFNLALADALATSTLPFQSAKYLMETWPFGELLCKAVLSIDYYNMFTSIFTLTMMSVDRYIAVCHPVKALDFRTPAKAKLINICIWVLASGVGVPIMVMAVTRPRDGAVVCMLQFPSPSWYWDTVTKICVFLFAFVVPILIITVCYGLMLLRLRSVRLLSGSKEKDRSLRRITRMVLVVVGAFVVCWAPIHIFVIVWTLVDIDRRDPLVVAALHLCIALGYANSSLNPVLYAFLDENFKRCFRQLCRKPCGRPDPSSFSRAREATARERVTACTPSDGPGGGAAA
# T8 sequence (P25103 whole entry): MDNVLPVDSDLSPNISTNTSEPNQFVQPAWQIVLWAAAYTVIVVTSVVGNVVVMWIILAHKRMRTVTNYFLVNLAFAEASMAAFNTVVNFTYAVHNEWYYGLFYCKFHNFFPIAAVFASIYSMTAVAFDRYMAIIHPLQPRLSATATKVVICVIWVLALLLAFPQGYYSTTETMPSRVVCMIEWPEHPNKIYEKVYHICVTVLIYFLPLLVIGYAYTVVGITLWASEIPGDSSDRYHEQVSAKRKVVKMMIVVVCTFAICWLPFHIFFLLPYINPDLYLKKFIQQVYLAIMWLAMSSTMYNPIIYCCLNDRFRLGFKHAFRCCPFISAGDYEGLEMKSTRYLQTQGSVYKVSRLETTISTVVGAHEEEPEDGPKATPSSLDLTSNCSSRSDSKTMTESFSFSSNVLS
# T6 sequence (Q99705 whole entry): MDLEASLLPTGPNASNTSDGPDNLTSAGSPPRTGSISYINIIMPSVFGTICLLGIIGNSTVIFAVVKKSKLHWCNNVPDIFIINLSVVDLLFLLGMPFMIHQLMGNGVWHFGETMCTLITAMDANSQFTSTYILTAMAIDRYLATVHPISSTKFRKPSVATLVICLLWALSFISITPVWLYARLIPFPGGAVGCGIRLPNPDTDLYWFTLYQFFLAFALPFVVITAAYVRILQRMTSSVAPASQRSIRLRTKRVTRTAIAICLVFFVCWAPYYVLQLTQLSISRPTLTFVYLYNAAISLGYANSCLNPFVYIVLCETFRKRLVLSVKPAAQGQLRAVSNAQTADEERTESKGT
# T5 sequence (P33032 whole entry): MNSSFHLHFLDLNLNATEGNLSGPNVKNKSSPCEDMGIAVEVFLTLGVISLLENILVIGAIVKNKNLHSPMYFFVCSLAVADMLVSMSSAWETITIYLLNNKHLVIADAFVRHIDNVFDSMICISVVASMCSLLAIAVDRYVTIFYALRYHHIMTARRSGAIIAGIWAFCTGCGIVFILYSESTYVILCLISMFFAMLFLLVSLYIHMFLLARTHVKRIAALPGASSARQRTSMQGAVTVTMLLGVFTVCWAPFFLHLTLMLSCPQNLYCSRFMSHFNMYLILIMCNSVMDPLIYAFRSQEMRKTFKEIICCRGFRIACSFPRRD
smiles,measurement,setting,value
N=C(N)NCC(=O)NC1C(OCc2ccc(Cl)cc2)OC(COCc2ccc3ccccc3c2)C(O)C1OCc1ccc2ccccc2c1 (stereo not drawn) [compound 420],A1: inhibition of radioligand binding,[1]; human DOP membranes,− (“−” indicates less than 50% inhibition at 10 μM)
same,A2: inhibition of radioligand binding,[2]; human KOP membranes,− (“−” indicates less than 50% inhibition at 10 μM)
same,A3: inhibition of radioligand binding,[3]; human MC3 membranes,+ (“+” indicates greater than 50% inhibition at 10 μM)
same,A4: inhibition of radioligand binding,[4]; human MC4 membranes,+ (“+” indicates greater than 50% inhibition at 10 μM)
same,A5: inhibition of radioligand binding,[5]; human MC5 membranes,+ (“+” indicates greater than 50% inhibition at 10 μM)
same,A6: inhibition of radioligand binding,"[6]; [125I]-S36057, human MCH1 membranes",− (“−” indicates less than 50% inhibition at 10 μM)
same,A7: inhibition of radioligand binding,[7]; human MOP membranes,− (“−” indicates less than 50% inhibition at 10 μM)
same,A8: inhibition of radioligand binding,[8]; human NK1 membranes,+ (“+” indicates greater than 50% inhibition at 10 μM)
same,A9: inhibition of radioligand binding,[9]; human NPY-Y1 membranes,− (“−” indicates less than 50% inhibition at 10 μM)
same,A10: inhibition of radioligand binding,[10]; human ORL1 membranes,+ (“+” indicates greater than 50% inhibition at 10 μM)
same,A11: inhibition of radioligand binding,[11]; mouse mUR2 membranes,− (“−” indicates less than 50% inhibition at 10 μM)
COC[C@H]1OC(OCc2ccc(Cl)cc2)[C@H](NC(=O)CNC(=N)N)[C@@H](OCc2ccc3ccccc3c2)[C@@H]1O (stereo partly drawn) [compound 31],A1 radioligand binding inhibition,[1]; human δ-opioid (DOP) membranes,− (“−” indicates less than 50% inhibition at 10 μM)
same,A2 radioligand binding inhibition,[2]; human κ-opioid (KOP) membranes,− (“−” indicates less than 50% inhibition at 10 μM)
same,A3 radioligand binding inhibition,[3]; human melanocortin MC3 membranes,+ (“+” indicates greater than 50% inhibition at 10 μM)
same,A4 radioligand binding inhibition,[4]; human melanocortin MC4 membranes,− (“−” indicates less than 50% inhibition at 10 μM)
same,A5 radioligand binding inhibition,[5]; human melanocortin MC5 membranes,+ (“+” indicates greater than 50% inhibition at 10 μM)
same,A6 radioligand binding inhibition,[6]; human MCH1 membranes,− (“−” indicates less than 50% inhibition at 10 μM)
same,A7 radioligand binding inhibition,[7]; human μ-opioid (MOP) membranes,+ (“+” indicates greater than 50% inhibition at 10 μM)
same,A8 radioligand binding inhibition,[8]; human neurokinin NK1 membranes,− (“−” indicates less than 50% inhibition at 10 μM)
same,A9 radioligand binding inhibition,[9]; human NPY-Y1 membranes,− (“−” indicates less than 50% inhibition at 10 μM)
same,A10 radioligand binding inhibition,[10]; human ORL1 membranes,− (“−” indicates less than 50% inhibition at 10 μM)
same,A11 radioligand binding inhibition,[11]; mouse urotensin mUR2 membranes,− (“−” indicates less than 50% inhibition at 10 μM)
COCC1OC(OCCc2ccccc2)C(NC(=O)CNC(=N)N)C(OCc2ccccc2)C1O (stereo not drawn) [compound 215],A1: inhibition of radioligand binding,[1]; FlashPlate,− (“−” indicates less than 50% inhibition at 10 μM)
same,A2: inhibition of radioligand binding,[2]; filtration,− (“−” indicates less than 50% inhibition at 10 μM)
same,A3: inhibition of radioligand binding,[3]; FlashPlate,− (“−” indicates less than 50% inhibition at 10 μM)
same,A4: inhibition of radioligand binding,[4]; FlashPlate,− (“−” indicates less than 50% inhibition at 10 μM)
same,A5: inhibition of radioligand binding,[5]; FlashPlate,+ (“+” indicates greater than 50% inhibition at 10 μM)
same,A6: inhibition of radioligand binding,"[6]; [125I]-S36057, FlashPlate",− (“−” indicates less than 50% inhibition at 10 μM)
same,A7: inhibition of radioligand binding,[7]; FlashPlate,− (“−” indicates less than 50% inhibition at 10 μM)
same,A8: inhibition of radioligand binding,[8]; filtration,+ (“+” indicates greater than 50% inhibition at 10 μM)
same,A9: inhibition of radioligand binding,[9]; FlashPlate,− (“−” indicates less than 50% inhibition at 10 μM)
same,A10: inhibition of radioligand binding,[10]; FlashPlate,− (“−” indicates less than 50% inhibition at 10 μM)
same,A11: inhibition of radioligand binding,[11]; FlashPlate,− (“−” indicates less than 50% inhibition at 10 μM)
